Data taken from US6737383B1, “Herbicidal oxadiazolidines” (priority 1999, dated 2004).

Tests used:
[1] = tested on: sugar beet; assay: Test B pre/postemergence sugar beet; assay type: in vivo, Beta vulgaris
In short: (§1)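 Test chemicals in a non-phytotoxic solvent mixture with surfactant were sprayed preemergence onto planted seeds and postemergence onto plants 2 to 18 cm tall (1- to 4-leaf stage). After twelve to sixteen days in a greenhouse, injury was visually rated against untreated controls from 0 (no effect) to 10 (complete control).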

[2] = tested on: rape; assay: Test B pre/postemergence rape; assay type: in vivo, Brassica napus
In short: as §1

[3] = tested on: duck salad; assay: Test B flood test duck salad; assay type: in vivo, Heteranthera limosa; settings: Pre-emergence
In short: (§2)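 Plants were grown to the 2-leaf stage before treatment with test chemical, then held in a greenhouse for twelve to sixteen days. Injury was visually rated against untreated controls on a 0–10 scale, where 0 is no effect and 10 is complete control.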

[4] = tested on: wild oat; assay: Test B pre/postemergence wild oat; assay type: in vivo, Avena fatua
In short: as §1

[5] = tested on: pigweed; assay: Test B pre/postemergence pigweed; assay type: in vivo, Amaranthus retroflexus
In short: as §1

[6] = tested on: purple nutsedge; assay: Test B pre/postemergence purple nutsedge; assay type: in vivo, Cyperus rotundus
In short: as §1

[7] = tested on: crabgrass; assay: Test B pre/postemergence crabgrass; assay type: in vivo, Digitaria sanguinalis
In short: as §1

[8] = tested on: giant foxtail; assay: Test B pre/postemergence giant foxtail; assay type: in vivo, Setaria faberii
In short: as §1

[9] = tested on: bamyardgrass; assay: Test B flood test barnyardgrass; assay type: in vivo, Echinochloa crus-galli; settings: Pre-emergence
In short: as §2

[10] = tested on: rice; assay: Test B flood test rice; assay type: in vivo, Oryza sativa; settings: Pre-emergence
In short: as §2

[11] = tested on: smallflower flatsedge; assay: Test B flood test smallflower flatsedge; assay type: in vivo, Cyperus difformis; settings: Pre-emergence
In short: as §2

[12] = tested on: soybean; assay: Test B pre/postemergence soybean; assay type: in vivo, Glycine max
In short: as §1

[13] = tested on: morningglory; assay: Test B pre/postemergence morningglory; assay type: in vivo, Ipomoea hederacea
In short: as §1

[14] = tested on: cocklebur; assay: Test B pre/postemergence cocklebur; assay type: in vivo, Xanthium strumarium
In short: as §1

[15] = tested on: surinam grass; assay: Test B pre/postemergence surinam grass; assay type: in vivo, Brachiaria decumbens
In short: as §1

[16] = tested on: corn; assay: Test B pre/postemergence corn; assay type: in vivo, Zea mays
In short: as §1

[17] = Preemergence, Rate 62 g/ha, scale of 0 to 10 where 0 is no effect and 10 is complete control
[18] = Preemergence, Rate 250 g/ha, scale of 0 to 10 where 0 is no effect and 10 is complete control
[19] = Preemergence, Rate 500 g/ha, scale of 0 to 10 where 0 is no effect and 10 is complete control
[20] = Rate 62 g/ha, Postemergence, scale 0 to 10 (0 no effect, 10 complete control)
[21] = Rate 125 g/ha, Postemergence, scale of 0 to 10 where 0 is no effect and 10 is complete control
[22] = Rate 250 g/ha, Postemergence, scale of 0 to 10 where 0 is no effect and 10 is complete control
[23] = Rate 1000 g/ha, scale 0 to 10 (0 no effect, 10 complete control)
[24] = Rate 125 g/ha, flood test species, scale 0 to 10 where 0 is no effect and 10 is complete control
[25] = Rate 250 g/ha, flood-test species, scale 0 to 10, 0 is no effect, 10 is complete control
[26] = Rate 500 g/ha, flood test species, scale 0 to 10 (0 no effect, 10 complete control)
[27] = Rate 500 g/ha, Postemergence, scale 0 to 10, 0 no effect, 10 complete control

CCN(C(=O)n1oc(=O)n(C(C)C)c1=O)C1CCCCC1 [Compound 309]
Sugarbeets plant response rating [1, 17]: 0
Sugarbeets plant response rating (0 to 10 scale) ([1]; Preemergence, Rate 125 g/ha): 0
Sugarbeets plant response rating [1, 18]: 0
Sugarbeets plant response rating [1, 19]: 0
Sugarbeets plant response rating [1, 20]: 0
Sugarbeets plant response rating [1, 21]: 0
Plant response rating, Sugarbeets [1, 22]: 0
Rape plant response rating [2, 17]: 0
Rape plant response rating (0 to 10 scale) ([2]; Preemergence, Rate 125 g/ha): 0
Rape plant response rating [2, 18]: 0
Rape plant response rating [2, 19]: 0
Rape plant response rating [2, 20]: 0
Rape plant response rating [2, 21]: 0
Plant response rating, Rape [2, 22]: 0
Ducksalad plant response rating [3, 23]: 0
Ducksalad plant response rating [3, 24]: 0
Ducksalad plant response rating [3, 25]: 0
Ducksalad plant response rating [3, 26]: 0
Wild oats plant response rating [4, 17]: 0
Wild oats plant response rating (0 to 10 scale) ([4]; Preemergence, Rate 125 g/ha): 0
Wild oats plant response rating [4, 18]: 0
Wild oats plant response rating [4, 19]: 2
Wild oats plant response rating [4, 20]: 0
Wild oats plant response rating [4, 21]: 0
Plant response rating, Wild oats [4, 22]: 0
Redroot pigweed plant response rating [5, 17]: 0
Redroot pigweed plant response rating (0 to 10 scale) ([5]; Preemergence, Rate 125 g/ha): 0
Redroot pigweed plant response rating [5, 18]: 0
Redroot pigweed plant response rating [5, 19]: 2
Redroot pigweed plant response rating [5, 20]: 0
Redroot pigweed plant response rating [5, 21]: 0
Plant response rating, Redroot pigweed [5, 22]: 0
Nutsedge plant response rating [6, 17]: 0
Nutsedge plant response rating (0 to 10 scale) ([6]; Preemergence, Rate 125 g/ha): 0
Nutsedge plant response rating [6, 18]: 0
Nutsedge plant response rating [6, 19]: 0
Nutsedge plant response rating [6, 20]: 0
Nutsedge plant response rating [6, 21]: 0
Plant response rating, Nutsedge [6, 22]: 0
Crabgrass plant response rating [7, 17]: 0
Crabgrass plant response rating (0 to 10 scale) ([7]; Preemergence, Rate 125 g/ha): 1
Crabgrass plant response rating [7, 18]: 2
Crabgrass plant response rating [7, 19]: 6
Crabgrass plant response rating [7, 20]: 0
Crabgrass plant response rating [7, 21]: 0
Plant response rating, Crabgrass [7, 22]: 0
Giant foxtail plant response rating [8, 17]: 5
Giant foxtail plant response rating (0 to 10 scale) ([8]; Preemergence, Rate 125 g/ha): 9
Giant foxtail plant response rating [8, 18]: 9
Giant foxtail plant response rating [8, 19]: 9
Giant foxtail plant response rating [8, 20]: 0
Giant foxtail plant response rating [8, 21]: 0
Plant response rating, Giant foxtail [8, 22]: 0
Barnyardgrass plant response rating [9, 23]: 0
Barnyardgrass plant response rating [9, 24]: 0
Barnyardgrass plant response rating [9, 25]: 0
Barnyardgrass plant response rating [9, 26]: 0
Rice plant response rating [10, 23]: 0
Rice plant response rating [10, 24]: 0
Rice plant response rating [10, 25]: 0
Rice plant response rating [10, 26]: 0
S. Flatsedge plant response rating [11, 23]: 0
S. Flatsedge plant response rating [11, 24]: 0
S. Flatsedge plant response rating [11, 25]: 0
S. Flatsedge plant response rating [11, 26]: 0
Soybean plant response rating [12, 17]: 0
Soybean plant response rating (0 to 10 scale) ([12]; Preemergence, Rate 125 g/ha): 0
Soybean plant response rating [12, 18]: 0
Soybean plant response rating [12, 19]: 0
Soybean plant response rating [12, 20]: 2
Soybean plant response rating [12, 21]: 2
Plant response rating, Soybean [12, 22]: 2
Morningglory plant response rating [13, 17]: 0
Morningglory plant response rating (0 to 10 scale) ([13]; Preemergence, Rate 125 g/ha): 0
Morningglory plant response rating [13, 18]: 0
Morningglory plant response rating [13, 19]: 0
Morningglory plant response rating [13, 20]: 1
Morningglory plant response rating [13, 21]: 1
Plant response rating, Morningglory [13, 22]: 2
Cocklebur plant response rating [14, 17]: 0
Cocklebur plant response rating (0 to 10 scale) ([14]; Preemergence, Rate 125 g/ha): 0
Cocklebur plant response rating [14, 18]: 0
Cocklebur plant response rating [14, 19]: 0
Cocklebur plant response rating [14, 20]: 0
Cocklebur plant response rating [14, 21]: 0
Plant response rating, Cocklebur [14, 22]: 0
Cocklebur plant response rating [14, 27]: 0
B. signalgrass plant response rating [15, 17]: 0
B. signalgrass plant response rating (0 to 10 scale, 0 is no effect, 10 is complete control) ([15]; Preemergence, Rate 125 g/ha): 0
B. signalgrass plant response rating [15, 18]: 0
B. signalgrass plant response rating [15, 19]: 2
B. signalgrass plant response rating [15, 20]: 0
B. signalgrass plant response rating [15, 21]: 0
Plant response rating, B. signalgrass [15, 22]: 0
B. signalgrass plant response rating [15, 27]: 0
Corn plant response rating [16, 17]: 0
Corn plant response rating (0 to 10 scale) ([16]; Preemergence, Rate 125 g/ha): 0
Corn plant response rating [16, 18]: 2
Corn plant response rating [16, 19]: 4
Corn plant response rating [16, 20]: 0
Corn plant response rating [16, 21]: 0
Plant response rating, Corn [16, 22]: 0
Corn plant response rating [16, 27]: 0
